Experimental data from ChEMBL document CHEMBL3244262, “A Fujita--Ban structure--activity analysis of 44 steroids” (1978).

System: Rattus norvegicus
Assay: Glucocorticoid activity in sc dosed bilaterally adrenalectomized rat assessed as glycogen deposition in liver administered for 5 days relative to cortisol
Type: functional

SMILES | log(activity)
CC(=O)[C@@]1(O)[C@H](O)C[C@H]2[C@@H]3CCC4=CC(=O)C=C[C@]4(C)[C@@]3(F)[C@@H](O)C[C@@]21C | 0.93
C[C@]12C[C@H](O)[C@H]3[C@@H](CCC4=CC(=O)CC[C@@]43C)[C@@H]1CC[C@@H]2C(=O)CO [CORTICOSTERONE] | -0.55
C[C@@H]1C[C@H]2[C@@H]3C[C@H](F)C4=CC(=O)CC[C@]4(C)[C@H]3CC[C@]2(C)[C@@]1(O)C(=O)CO | -0.6
C[C@H]1C[C@@H]2[C@H]([C@@H](O)C[C@@]3(C)[C@H]2CC[C@]3(O)C(=O)CF)[C@@]2(C)C=CC(=O)C=C12 | 0.2
C[C@]12C=CC(=O)C=C1CC[C@H]1[C@@H]3C[C@@H](O)[C@](O)(C(=O)CO)[C@@]3(C)C[C@H](O)[C@@]12F [TRIAMCINOLONE] | 1.03
C[C@]12CC(=O)[C@H]3[C@@H](CCC4=CC(=O)CC[C@@]43C)[C@@H]1CC[C@@H]2C(=O)CO | -0.31
CC(=O)[C@H]1[C@H](C)C[C@H]2[C@@H]3CCC4=CC(=O)CC[C@]4(C)[C@@]3(F)C(=O)C[C@@]21C | -0.11
C[C@]12CCC(=O)C=C1CC[C@H]1[C@@H]3C[C@@H](O)[C@](O)(C(=O)CO)[C@@]3(C)C[C@H](O)[C@@]12F | 0.53
CC(=O)[C@H]1CC[C@H]2[C@@H]3C[C@H](F)C4=CC(=O)CC[C@]4(C)[C@H]3C(=O)C[C@]12C | -1.15
CC(=O)OCC(=O)[C@@]1(O)CC[C@H]2[C@@H]3C[C@H](C)C4=CC(=O)CC[C@]4(C)[C@H]3C(=O)C[C@@]21C | -0.1
CC(=O)[C@H]1CC[C@H]2[C@@H]3CCC4=CC(=O)[C@H](C)C[C@]4(C)[C@@]3(F)C(=O)C[C@]12C | -0.01
CC(=O)[C@@]1(O)CC[C@H]2[C@@H]3C[C@H](C)C4=CC(=O)CC[C@]4(C)[C@H]3[C@@H](O)C[C@@]21C | 0.36
CC(=O)C1(C(C)=O)CC[C@H]2[C@@H]3CCC4=CC(=O)CC[C@]4(C)[C@@]3(F)[C@@H](O)C[C@@]21C | -0.7
C[C@]12CCC(=O)C=C1CC[C@H]1[C@@H]3CC[C@](O)(C(=O)CO)[C@@]3(C)C[C@H](O)[C@@]12F [FLUDROCORTISONE] | 0.9
C[C@]12C=CC(=O)C=C1C=C[C@@H]1[C@@H]2[C@@H](O)C[C@@]2(C)[C@H]1CC[C@]2(O)C(=O)CO | 0.08
C[C@H]1C[C@H]2[C@@H]3CC[C@](O)(C(=O)CO)[C@@]3(C)C[C@H](O)[C@]2(F)[C@@]2(C)C=CC(=O)C=C12 | 1.15

SMILES | log(activity)
C[C@]12CCC(=O)C=C1CC[C@@H]1[C@@H]2C(=O)C[C@@]2(C)[C@H]1CC[C@]2(O)C(=O)CO [CORTISONE] | -0.46
C[C@]12CCC(=O)C=C1C=C[C@@H]1[C@@H]2[C@@H](O)C[C@@]2(C)[C@H]1CC[C@]2(O)C(=O)CO | -0.15
CC(=O)[C@H]1CC[C@H]2[C@@H]3C[C@H](C)C4=CC(=O)CC[C@]4(C)[C@H]3C(=O)C[C@]12C | 0.12
CC(=O)[C@H]1CC[C@H]2[C@@H]3C[C@H](F)C4=CC(=O)CC[C@]4(C)[C@@]3(F)[C@@H](O)C[C@]12C | 0.06
C[C@]12C=CC(=O)C=C1CC[C@@H]1[C@@H]2C(=O)C[C@@]2(C)[C@H]1CC[C@]2(O)C(=O)CO [PREDNISONE] | 0.32
CC(=O)[C@H]1CC[C@H]2[C@@H]3CCC4=CC(=O)[C@H](C)C[C@]4(C)[C@@]3(F)[C@@H](O)C[C@]12C | -0.28
CC(=O)[C@H]1[C@H](O)C[C@H]2[C@@H]3CCC4=CC(=O)CC[C@]4(C)[C@@]3(F)[C@@H](O)C[C@@]21C | -1.3
C[C@H]1C[C@@H]2[C@H]([C@@H](O)C[C@@]3(C)[C@H]2CC[C@]3(O)C(=O)CO)[C@@]2(C)CCC(=O)C=C12 | 0.2
C[C@@H]1C[C@@]2(C)C(=CC1=O)CC[C@@H]1[C@@H]2[C@@H](O)C[C@@]2(C)[C@H]1CC[C@]2(O)C(=O)CO | 0.64
CC(=O)[C@@]1(O)CC[C@H]2[C@@H]3CCC4=CC(=O)[C@H](C)C[C@]4(C)[C@@]3(F)[C@@H](O)C[C@@]21C | -0.11
C[C@H]1C[C@@H]2[C@H]([C@@H](O)C[C@@]3(C)[C@H]2CC[C@]3(O)C(=O)CF)[C@@]2(C)CCC(=O)C=C12 | 0.29
C[C@]12CCC(=O)C=C1CC[C@@H]1[C@@H]2[C@@H](O)C[C@@]2(C)[C@H]1CC[C@]2(O)C(=O)CO [HYDROCORTISONE] | 0
CC(=O)[C@H]1CC[C@H]2[C@@H]3CCC4=CC(=O)CC[C@]4(C)[C@@]3(F)[C@@H](O)C[C@]12C | -1.3
CC(=O)[C@H]1CC[C@H]2[C@@H]3C[C@H](C)C4=CC(=O)CC[C@]4(C)[C@@]3(F)[C@@H](O)C[C@]12C | 0.34
C[C@]12C=CC(=O)C=C1CC[C@@H]1[C@@H]2[C@@H](O)C[C@@]2(C)[C@H]1CC[C@]2(O)C(=O)CO [PREDNISOLONE] | 0.43
